Structures are written as SMILES.

Test [1] has as its target T1, Btk (Homo sapiens, UniProt Q06187). As to the kind of experiment: In vitro Btk competition binding assay (kinase-tagged T7 phage, liganded affinity beads, qPCR readout). More on the design: made in house; host or cells: E. coli BL21-derived host (T7 phage display) or HEK-293 cells. To be noted: 11-point 3-fold serial dilution, top concentration 10,000 nM, Hill slope -1. As to the method:
An in vitro assay which determines the ability of a test compound to inhibit Btk.
Kinase-tagged T7 phage strains were prepared in an E. coli host derived from the BL21 strain. E. coli were grown to log-phase and infected with T7 phage and incubated with shaking at 32° C. until lysis. The lysates were centrifuged and filtered to remove cell debris. The remaining kinases were produced in HEK-293 cells and subsequently tagged with DNA for qPCR detection. Streptavidin-coated magnetic beads were treated with biotinylated small molecule ligands for 30 minutes at room temperature to generate affinity resins for kinase assays. The liganded beads were blocked with excess biotin and washed with blocking buffer (SeaBlock (Pierce), 1% BSA, 0.05% Tween 20, 1 mM DTT) to remove unbound ligand and to reduce non-specific binding. Binding reactions were assembled by combining kinases, liganded affinity beads, and test compounds in 1× binding buffer (20% SeaBlock, 0.17× PBS, 0.05% Tween 20, 6 mM DTT). All reactions were performed in polystyrene 96-well plates in a final volume of 0.135 ml. The assay plates were incubated at room temperature with shaking for 1 hour and the affinity beads were washed with wash buffer (1× PBS, 0.05% Tween 20). The beads were then re-suspended in elution buffer (1× PBS, 0.05% Tween 20, 0.5 μM non-biotinylated affinity ligand) and incubated at room temperature with shaking for 30 minutes. The kinase concentration in the eluates was measured by qPCR.
An 11-point 3-fold serial dilution of each test compound was prepared in 100% DMSO at 100× final test concentration and subsequently diluted to 1× in the assay (final DMSO concentration=1%). Kds were determined using a compound top concentration=10,000 nM. If the initial Kd determined was <0.5 nM (the lowest concentration tested), the measurement was repeated with a serial dilution starting at a lower top concentration.
Binding constants (Kds) were calculated with a standard dose-response curve using the Hill equation: Response=Background+(Signal−Background)/(1+(Kd^Hill Slope/Dose^Hill Slope)). The Hill Slope was set to −1. Curves were fitted using a non-linear least square fit with the Levenberg-Marquardt algorithm.
The following Table 1 lists compounds representative of the invention and their corresponding inhibitory activity against Btk.

For test [2], the target named is T1, Btk. As to the kind of experiment: Btk Ramos Cellular Assay (phosphorylation of the Btk substrate PLC gamma.2 after anti-IgM stimulation). The test is classed as cell-based. To be noted: Ramos cells, 1 hour with compound at 1, 0.1, 0.01 or 0.001 μM, goat F(ab')2 Anti-Human IgM stimulation, blot for PLC gamma.2 phosphorylation; read-out: inhibition of Btk signaling in Ramos cellular assay, IC50. The method, then: Ramos cells were grown in suspension in T225 flasks, spun down, resuspended in 50 mL serum-free media and incubated for 1 hour. Compound was added to Ramos cells in serum free media to a final concentration of 1, 0.1, 0.01, or 0.001 μM. Ramos cells were incubated with compound for 1 hour, washed again and resuspended in 100 μL serum-free media. Cells were then stimulated with 1 μg of goat F(ab′)2 Anti-Human IgM and incubated on ice for 10 minutes to activate B cell receptor signaling pathways. After 10 minutes, the cells were washed once with PBS and then lysed on ice with Invitrogen Cell Extraction buffer. Sixteen μg total protein from lysates was loaded on gels and blots were probed for phosphorylation of the Btk substrate PLC gamma.2.

T1 sequence (Q06187 whole entry, species assumed): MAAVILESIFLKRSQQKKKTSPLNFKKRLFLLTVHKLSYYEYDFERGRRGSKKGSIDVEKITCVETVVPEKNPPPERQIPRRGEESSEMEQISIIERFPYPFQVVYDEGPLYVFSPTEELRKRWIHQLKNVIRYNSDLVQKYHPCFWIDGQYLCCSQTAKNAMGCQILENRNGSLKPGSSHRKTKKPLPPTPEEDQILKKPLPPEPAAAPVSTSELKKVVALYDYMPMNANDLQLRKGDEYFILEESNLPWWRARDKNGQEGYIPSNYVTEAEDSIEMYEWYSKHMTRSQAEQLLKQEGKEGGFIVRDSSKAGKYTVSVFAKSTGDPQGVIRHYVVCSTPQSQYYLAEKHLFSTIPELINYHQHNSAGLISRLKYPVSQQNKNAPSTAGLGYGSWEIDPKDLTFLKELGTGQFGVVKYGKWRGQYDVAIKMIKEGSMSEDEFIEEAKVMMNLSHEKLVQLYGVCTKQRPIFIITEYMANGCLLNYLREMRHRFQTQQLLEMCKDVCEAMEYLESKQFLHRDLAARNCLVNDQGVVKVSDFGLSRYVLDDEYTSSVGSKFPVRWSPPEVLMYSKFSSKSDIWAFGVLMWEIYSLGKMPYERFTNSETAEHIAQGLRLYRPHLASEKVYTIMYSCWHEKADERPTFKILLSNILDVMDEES

Turning to `CN(C)C/C=C/C(=O)Nc1cc2c(Nc3ccc(Oc4ccccc4)cc3)ncnc2cc1O[C@H]1CCOC1` [Compound 35, (S,E)-4-(dimethylamino)-N-(4-((4-phenoxyphenyl)amino)-7-((tetrahydrofuran-3-yl)oxy)quinazolin-6-yl)but-2-enamide], the Kd at Btk [1] is less than 100 nM.

As for `C=CC(=O)Nc1cc2c(Nc3ccc(Oc4ccccc4)cc3)ncnc2cc1OC` [Compound 36, N-(7-methoxy-4-((4-phenoxyphenyl)amino)quinazolin-6-yl)acrylamide], the affinity at Btk [1], expressed as Kd, was 2.3 nM.

With `CCOc1cc2ncnc(Nc3ccc(Oc4ccccc4)cc3)c2cc1NC(=O)/C=C/CN(C)C` [Compound 31, (E)-4-(dimethylamino)-N-(7-ethoxy-4-((4-phenoxyphenyl)amino)quinazolin-6-yl)but-2-enamide], the IC50 on Btk [2] is less than 100 nM. The affinity on Btk [1], expressed as Kd, was 2.6 nM.

Compound `C=CC(=O)Nc1cc2c(Nc3ccc(Oc4ccccc4)cc3)ncnc2cc1OCC` [Compound 37, N-(7-ethoxy-4-(4-phenoxyphenylamino)quinazolin-6-yl)acrylamide] showed a Kd on Btk [1] of 1.2 nM.

For `COc1cc2ncnc(Nc3ccc(Oc4ccccc4)cc3)c2cc1NC(=O)/C=C/CN(C)C` [Compound 27, (E)-4-(dimethylamino)-N-(7-methoxy-4-((4-phenoxyphenyl)amino)quinazolin-6-yl)but-2-enamide], the IC50 on Btk [2] was less than 100 nM. At Btk [1], this compound showed a Kd of 2.2 nM.

`C=CC(=O)Nc1cc2c(Nc3ccc(Oc4ccccc4)cc3)ncnc2cc1O[C@H]1CCOC1` [Compound 38, (S)-N-(4-((4-phenoxyphenyl)amino)-7-((tetrahydrofuran-3-yl)oxy)quinazolin-6-yl)acrylamide]: the Kd on Btk [1] was less than 100 nM.

One may read the Kd as the equilibrium constant for the complex coming apart. Lower therefore signals tighter binding. What is called IC50 is the concentration that gives 50% inhibition.

For the origin of these results see patent US9550738B2, “Bicyclic compounds as kinases inhibitors” (HangzhouDeRenYuCheng Biotechnology Ltd, priority 2012, dated 2017).
